Data taken from publication PMC5133702, “Liver-specific ATP-citrate lyase inhibition by bempedoic acid decreases LDL-C and attenuates atherosclerosis” (Nature Communications, 2016).
pKi: −log10 of the molar value.

Molecular target: T1, ATP-citrate lyase (ACL) (Homo sapiens, UniProt P53396)
T1 construct: gene ACLY; recombinant human ACL
T1 sequence (P53396 1-1101): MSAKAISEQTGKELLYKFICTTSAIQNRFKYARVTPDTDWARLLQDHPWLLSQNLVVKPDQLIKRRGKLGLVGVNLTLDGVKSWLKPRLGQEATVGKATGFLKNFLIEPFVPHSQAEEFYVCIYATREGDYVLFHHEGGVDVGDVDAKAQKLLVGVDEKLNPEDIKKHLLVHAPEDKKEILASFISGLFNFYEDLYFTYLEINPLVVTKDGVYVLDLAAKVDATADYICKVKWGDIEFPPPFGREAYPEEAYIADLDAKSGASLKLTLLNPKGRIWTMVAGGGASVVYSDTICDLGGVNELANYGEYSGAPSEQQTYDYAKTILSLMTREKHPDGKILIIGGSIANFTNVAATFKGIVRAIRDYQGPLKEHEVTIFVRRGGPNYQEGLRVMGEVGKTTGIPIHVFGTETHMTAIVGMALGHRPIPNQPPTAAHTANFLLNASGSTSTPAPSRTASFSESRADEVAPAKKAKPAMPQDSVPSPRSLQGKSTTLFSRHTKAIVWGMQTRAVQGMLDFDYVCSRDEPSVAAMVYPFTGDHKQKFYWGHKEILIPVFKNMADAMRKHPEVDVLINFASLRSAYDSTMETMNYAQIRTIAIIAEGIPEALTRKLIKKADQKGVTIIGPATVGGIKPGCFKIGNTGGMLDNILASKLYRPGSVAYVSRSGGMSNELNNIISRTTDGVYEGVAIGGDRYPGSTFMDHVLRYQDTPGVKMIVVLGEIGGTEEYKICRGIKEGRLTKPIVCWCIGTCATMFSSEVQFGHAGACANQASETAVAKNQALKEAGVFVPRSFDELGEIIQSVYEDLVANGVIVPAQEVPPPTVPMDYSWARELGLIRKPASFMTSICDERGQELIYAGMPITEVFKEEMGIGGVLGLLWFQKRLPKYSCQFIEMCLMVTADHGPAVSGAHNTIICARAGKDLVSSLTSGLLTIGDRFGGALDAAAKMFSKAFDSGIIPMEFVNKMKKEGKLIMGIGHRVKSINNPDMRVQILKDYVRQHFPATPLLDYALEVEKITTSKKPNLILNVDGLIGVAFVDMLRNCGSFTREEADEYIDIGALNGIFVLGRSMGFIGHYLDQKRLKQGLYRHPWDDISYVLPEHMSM
Assay: cell-free radiometric assay, […]-citrate to […]-acetyl-CoA, enzyme kinetics
Assay type: biochemical

SMILES: CC(C)(CCCCCC(O)CCCCCC(C)(C)C(=O)SCCNC(=O)CCNC(=O)[C@H](O)C(C)(C)COP(=O)(O)OP(=O)(O)OC[C@H]1O[C@@H](n2cnc3c(N)ncnc32)[C@H](O)[C@@H]1OP(=O)(O)O)C(=O)O (stereo partly shown) [ETC-1002-CoA]
- pKi: 5.70
